Consider 6 compounds from patent US7855310B2, “AH receptor antagonists” (SYMRISE GmbH & Co. KG, priority 2006, dated 2010).

A short description of series [1]: Light stability test (solar simulator, HPLC quantification). The conditions noted are these: wt. % based on sum E isomer + Z isomer; for Degradation after 2 h: solar simulator 40 W/m^2, 2 h; for Degradation after 4 h: solar simulator 40 W/m^2, 4 h. Type of series: physicochemical. The protocol:
20 μl of a 1-3 wt. % solution of each of the test compounds of formula (I) in a low-volatility solvent (e.g. isopropyl myristate, miglyol or glycerol) are distributed uniformly over microscope slides using a pipette. These loaded slides are then irradiated in a solar simulator with an intensity of 40 W/m^2 (for 2 h or 4 h in each case).
When the irradiation has ended, the slides are each separately laid in a glass dish containing an organic solvent (methanol, isopropanol, etc.) and the organic substances present thereon are detached in an ultrasonic bath. The resulting solutions are each transferred to a 10 ml or 25 ml volumetric flask and made up to the calibration mark with solvent. Non-irradiated slides are treated likewise as references.
The samples (contents of the respective volumetric flasks) are evaluated via HPLC quantification. These values are compared with the non-irradiated references and the degradation rate during irradiation is reported in [wt. %] per unit time, based on the sum [E isomer+Z isomer].

A further series addresses T1, AhR (Homo sapiens, UniProt P35869).
T1 construct: endogenous in cells; host or cells: HaCaT keratinocytes
T1 sequence (P35869 11-848): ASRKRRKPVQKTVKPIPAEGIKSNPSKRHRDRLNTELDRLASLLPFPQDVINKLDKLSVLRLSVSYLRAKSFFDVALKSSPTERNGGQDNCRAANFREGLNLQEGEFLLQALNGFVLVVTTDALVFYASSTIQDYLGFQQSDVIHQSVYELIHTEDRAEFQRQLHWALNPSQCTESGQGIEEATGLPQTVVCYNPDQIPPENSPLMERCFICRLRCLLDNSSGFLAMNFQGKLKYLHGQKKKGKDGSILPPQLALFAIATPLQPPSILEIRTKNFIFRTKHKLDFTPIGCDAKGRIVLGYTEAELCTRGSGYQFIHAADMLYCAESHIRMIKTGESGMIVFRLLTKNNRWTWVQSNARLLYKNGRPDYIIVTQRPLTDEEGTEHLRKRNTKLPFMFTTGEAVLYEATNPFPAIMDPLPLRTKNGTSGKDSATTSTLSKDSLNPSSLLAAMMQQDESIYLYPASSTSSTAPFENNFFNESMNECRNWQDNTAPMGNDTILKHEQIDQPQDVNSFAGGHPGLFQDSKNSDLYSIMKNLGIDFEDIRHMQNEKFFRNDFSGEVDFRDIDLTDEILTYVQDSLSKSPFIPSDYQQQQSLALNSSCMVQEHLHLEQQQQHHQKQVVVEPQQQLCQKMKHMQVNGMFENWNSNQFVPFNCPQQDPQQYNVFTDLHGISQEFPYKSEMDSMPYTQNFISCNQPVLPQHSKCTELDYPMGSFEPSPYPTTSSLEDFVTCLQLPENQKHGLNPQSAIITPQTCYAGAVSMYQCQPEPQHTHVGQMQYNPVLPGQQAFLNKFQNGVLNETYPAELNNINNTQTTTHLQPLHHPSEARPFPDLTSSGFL
Briefly: Fluorescence microscopy of GFP-coupled AhR translocation in HaCaT cells transfected with pEGFP-AhR. Type of series: cell-based. As to conditions: in the presence and absence of UVB light. The source says:
HaCaT keratinocytes were cultivated in DMEM containing 10% of foetal calf serum. The cells were irradiated with UVB in PBS (phosphate buffered saline). For irradiation with UVB we used a TL20W/12RS lamp, which contains four parallel tubes (Philips, Eindhoven, The Netherlands) and emits the bulk of its energy in the UVB range (290-320 nm). The emission peak of the lamp is at 310 nm. Control cells were subjected to the same treatment but were not irradiated. To inhibit the AhR, the cells were treated with the test substances 1 h prior to irradiation.
HaCaT cells were plated out on compartmentalized microscope slides at a cell density of 5×10^4 cells/compartment. Some were pretreated for 1 h with the test substances. After 24 h these were transfected with plasmid pEGFP-AhR by means of the FuGene 6 transfection reagent (Roche, Mannheim, Germany) according to the manufacturer's instructions. After a further 24 h the transfected cells were irradiated with 100 J/m^2 of UVB. After 40 min the cells were fixed for 10 min with 4% paraformaldehyde and washed with PBS. The slides were dried and covered with Vectashield mounting medium (Vector Laboratories, Burlingame, Calif., USA). The GFP-coupled AhR was visualized by means of a fluorescence microscope (Olympus, Hamburg, Germany) and photographed with a ColorView XS digital camera (Olympus).

For `Oc1ccc(C=Cc2cc(O)cc(O)c2)cc1` (mixture of isomers) [Resveratrol (E/Z mixture), 3,5,4′-trihydroxystilbene, reference compound], in series [1], the “Degradation after 2 h” value is 77% and the “Degradation after 4 h” value was 84%.

On to `COc1cc(-c2cc(=O)c3ccccc3o2)ccc1[N+](=O)[O-]` [3-methoxy-4-nitroflavone], for which, on AhR, the “translocation of the AhR into the cell nucleus” value was “inhibited the translocation of the AhR into the cell nucleus”.

`COc1ccc(/C=C2/C(=O)c3ccccc3C2(C)C)cc1OC` [(Ib)]: in series [1], the “Degradation after 2 h” value was 4% and the “Degradation after 4 h” value is reported as 15%.

In the case of `CCCCOc1cc2c(cc1C)C(=O)/C(=C/c1ccc(OC)cc1)C2(C)C` [(Id)], in series [1], the “Degradation after 2 h” value is on record as 7% and the “Degradation after 4 h” value is 11%.

For `COc1cc2c(cc1OC)C(C)(C)/C(=C\c1ccccc1)C2=O` [Compound (Ia)], in series [1], the “Degradation after 2 h” value is given as 7% and the “Degradation after 4 h” value is reported as 7%.

Regarding `CC1=C(/C=C/C(C)=C/C=C/C(C)=C/C(=O)O)C(C)(C)CCC1` [Vitamin A acid, reference compound], in series [1], the “Degradation after 2 h” value is 95% and the “Degradation after 4 h” value is recorded as 100%.
